Assay [1] concerns the target T1, β 5i (chymotrypsin-like activity) (Homo sapiens, UniProt P20618+P28062).
T1 construct: protease activity associated with the proteasome complex in cultured cells; endogenous in cells; host or cells: Ramos cells
The assay can be described thus: Cell-Based Proteasome Activity/Selectivity Assay (Ramos cells), substrate (ANW)2Rh110. The settings on record: β 5i substrate (ANW)2Rh110, highest concentration tested 20 μM, read-out: Ic50: ramos:ac-(anw)2-r110. The text has this:
(§1) Cell-Based Proteasome Activity/Selectivity Assay
(§2) The Cell-Based Proteasome subunit activity/selectivity assay was a panel of 5 fluorogenic assays that independently measured the activity of β5c or β 5i (chymotrypsin-like activity), β 2c/2i (trypsin-like), and β 1c or β 1i (caspase-like) protease activity associated with the proteasome complex in cultured cells. Specifically, the following substrates were used for respective subunit activities: β 1i: (PAL)2Rh110, β 1c: (LLE)2Rh110, β 2c/2i: (KQL)2Rh110, β 5c: (WLA)2Rh110, β 5i: (ANW)2Rh110. The following procedure was followed:
(§3) Cell preparation: Plated 25 μl of Ramos cells (2×10^6/ml in DPBS) into half area plate (PerkinElmer Cat 6005569) to final 5×10^4 cells/well. Added 0.5 μl of 100× 4-fold serial diluted test compounds or DMSO to each well. Highest concentration of compound tested was 20 μM, thus compound serial dilution started from […]. Incubated for 30 minutes at 37° C. Then equilibrated at room temperature for 15 minutes. Added 25 μl of 2× reaction mix consisting of 0.025% digitonin, 20 μM of each substrates and 0.5M sucrose in DPBS. Shaked for one minute @ 700 rpm. Incubated for 120 min at room temperature. Then read the plates with an Envision multilabel plate reader (PerkinElmer) with 500 nm excitation/519 nm emission.

The target in assay [2] is T2, β5c (chymotrypsin-like activity) (Homo sapiens, UniProt P20618+P28074).
T2 construct: protease activity associated with the proteasome complex in cultured cells; endogenous in cells; host or cells: Ramos cells
The assay can be described thus: Cell-Based Proteasome Activity/Selectivity Assay (Ramos cells), substrate (WLA)2Rh110. The settings on record: β 5c substrate (WLA)2Rh110, highest concentration tested 20 μM.
Source text: as §1, §2, §3

Another assay concerns β 2c/2i (trypsin-like). The assay can be described thus: Cell-Based Proteasome Activity/Selectivity Assay (Ramos cells), substrate (KQL)2Rh110. The settings on record: β 2c/2i substrate (KQL)2Rh110, highest concentration tested 20 μM.
Source text: as §1, §2, §3

A further assay deals with T3, β 1i (caspase-like) (Homo sapiens, UniProt P28065+P40306).
T3 construct: protease activity associated with the proteasome complex in cultured cells; endogenous in cells; host or cells: Ramos cells
The assay can be described thus: Cell-Based Proteasome Activity/Selectivity Assay (Ramos cells), substrate (PAL)2Rh110. The settings on record: β 1i substrate (PAL)2Rh110, highest concentration tested 20 μM.
Source text: as §1, §2, §3

The next assay addresses T4, β 1c (caspase-like) (Homo sapiens, UniProt P28072+Q99436).
T4 construct: protease activity associated with the proteasome complex in cultured cells; endogenous in cells; host or cells: Ramos cells
The assay can be described thus: Cell-Based Proteasome Activity/Selectivity Assay (Ramos cells), substrate (LLE)2Rh110. As to conditions: β 1c substrate (LLE)2Rh110, highest concentration tested 20 μM.
Source text: as §1, §2, §3

Assay [3] has as its system IP10 level in PBMCs stimulated with CpG Type A. The assay can be described thus: PBMC IP-10 Assay. In kind it is cell-based. The settings on record: PBMCs stimulated with CpG Type A 2.5 μM, overnight, IP10 AlphaLISA. The procedure:
PBMCs were isolated from whole blood as follows: Blood was collected in a sterile environment in heparinized tubes. Blood was diluted with an equal volume PBS/2% FCS and 30 ml of this mixture was added to ACCUSPIN tubes containing 15 ml Histopaque-1077 already centrifuged at 800 g for 30 seconds and warmed up at room temperature. The tubes were then centrifuged at 800 g for 20 minutes at room temperature with no brake. The mononuclear band, just above the polyethylene frit, was removed by Pasteur pipet. These mononuclear cells were washed three times with sterile PBS, counted, and resuspended in RPMI 1640 supplemented with 10% heat inactivated fetal calf serum, 10 mM HEPES, 1 mM sodium pyruvate, penicillin (50 U/ml), streptomycin (50 μg/ml) and glutamine (2 mM) to approximately 1.5×10^6/ml. Approximately 2×10^5 cells/well were plated in 96 well tissue culture plates (BD Falcon 353072), and preincubated 60 mi/37° C. with a titration of compounds, in a final concentration of 1% DMSO. Cells were then stimulated with CpG Type A (Invivogen, Cat # tlrl-2216; ODN 2216) at a final concentration of 2.5 μM. Cells were incubated overnight, and supernatants were removed. PBMC viability of cells remaining in the well was measured with ATPlite luminescence assay (Perkin-Elmer) per the manufacturer's instructions. Luminescence was measured on the Perkin-Elmer Envision, using the luminescence filter. IP10 level was measured with CXCL10/IP10 AlphaLISA kit (Perkin-Elmer) per the manufacturer's instructions, except halving all volumes. Fluorescence was measured on the Envision Multilabel plate reader, using the AlphaScreen standard settings.
Background: Bead proximity is the source of the signal in Alpha formats.

Assay [4] relates to Th1/17 differentiation, B cell effector functions and production of inflammatory cytokines (IL-6, TNF-α, IL-23). As to conditions: cited from earlier work.
Assay [5] deals with mouse CAIA and CIA arthritis models. As to conditions: cited from earlier work.
In a further assay the test system is MRL/lpr lupus-prone mice. As to conditions: cited from earlier work.
The subject of assay [6] is DSS-induced colitis model in mice. The settings on record: cited from earlier work.

Some results are limits rather than exact numbers.

For the compound `COc1ccc(C(=O)NCCn2cc(C(=O)N[C@@H](CC(C)C)B(O)O)nn2)c(OC)c1OC` [Example 1, (R)-3-Methyl-1-(1-(2-(2,3,4-trimethoxybenzamido)ethyl)-1H-1,2,3-triazole-4-carboxamido)butylboronic acid], the IC50 in assay [1] is 2 nM; in assay [2] it was 39 nM; in the assay on β 2c/2i (trypsin-like) it was greater than 20000 nM; on β 1i (caspase-like), 4 nM; against β 1c (caspase-like), 320 nM. Besides, the concentration for a half-maximal effect (EC50) in assay [3] came to 29.5 nM.
As to `COc1ccc(C(=O)NCCn2cc(C(=O)N[C@@H](Cc3ccccc3)B(O)O)nn2)c(OC)c1OC` [Example 2, (R)-2-Phenyl-1-(1-(2-(2,3,4-trimethoxybenzamido)ethyl)-1H-1,2,3-triazole-4-carboxamido)ethylboronic acid], the 50% inhibitory concentration (IC50) in [1] came to 7 nM; in [2], 16 nM; in the assay on β 2c/2i (trypsin-like) it was 13500 nM; at β 1i (caspase-like), 25 nM; on β 1c (caspase-like), 6630 nM. The response in assay [3] was half-maximal at 33.7 nM (EC50).
`O=C(N[C@@H](Cc1ccccc1)B(O)O)c1cn(CCNC(=O)c2ccc(C(F)(F)F)cc2F)nn1` [Example 3, (R)-1-(1-(2-(2-Fluoro-4-(trifluoromethyl)benzamido)ethyl)-1H-1,2,3-triazole-4-carboxamido)-2-phenylethylboronic acid]: the IC50 was 2 nM in [1]; 6 nM in assay [2]; greater than 20000 nM with β 2c/2i (trypsin-like); 10 nM against β 1i (caspase-like); 7340 nM at β 1c (caspase-like). In addition, the half-maximal effective concentration (EC50) in assay [3] is 26.8 nM.
Regarding `COc1cc(C(F)(F)F)ccc1C(=O)NCCn1cc(C(=O)N[C@@H](Cc2ccccc2)B(O)O)nn1` [Example 4, (R)-1-(1-(2-(2-Methoxy-4-(trifluoromethyl)benzamido)ethyl)-1H-1,2,3-triazole-4-carboxamido)-2-phenylethylboronic acid], the IC50 is 2 nM in assay [1]; 20 nM in assay [2]; greater than 20000 nM with β 2c/2i (trypsin-like); 9 nM on β 1i (caspase-like); 7480 nM against β 1c (caspase-like). For the same compound, in [3], the response was half-maximal at 12.2 nM (EC50).
For `COc1ccc(C[C@H](NC(=O)[C@H](C)NC(=O)CN2CCOCC2)C(=O)N[C@@H](Cc2ccccc2)C(=O)[C@@]2(C)CO2)cc1` [PR-957], the “block of Th1/17 differentiation, B cell effector functions and production of inflammatory cytokines” value in assay [4] is recorded as “potently block”. Moreover, the disease score result in [5] was “significantly decrease disease score”. Moreover, in the assay with MRL/lpr lupus-prone mice, the disease progression entry is on record as “prevented disease progression”; the “plasma cells numbers and levels of anti-dsDNA IgG” value was “reduced plasma cells numbers and levels of anti-dsDNA IgG”. Besides, the “inflammation and tissue destruction” value in assay [6] is “reduced inflammation and tissue destruction”.

As a reminder, the IC50 is the concentration at which inhibition is half-maximal. For orientation: EC50 means the concentration needed to bring the measured effect to its halfway point. A high value points to a less potent agent.
